According to patent publication US8753841B2, “Enzyme that catalyzes a peptide-forming reaction from a carboxy component and an amine component, microbe producing the same, and a method of producing a dipeptide using the enzyme or microbe” (Ajinomoto Co., Inc., priority 2002, dated 2014):
Marks after values point to notes of the source that are not given here. Non-standard residues stand in square brackets, D forms with d. No end group written: not given here. *: point of attachment. Boc = CC(C)(C)OC(=O)*; OtBu = CC(C)(C)O*; tBu = CC(C)(C)*

Legend:
[1] = system: peptide-forming enzyme from Empedobacter brevis strain FERM BP-8113; assay: Substrate specificity of enzyme (peptide production from carboxy and amine components); assay type: biochemical; design: key to Formed peptide (mM): +: those peptides for which production was confirmed but which were unable to be quantified due to the absence of a standard; a trace amount
[2] = system: enzyme derived from Sphingobacterium sp. strain FERM BP-8124; assay: Substrate specificity of enzyme derived from Sphingobacterium sp.; assay type: biochemical; design: key to Produced peptide (mM): +: those peptides for which production was confirmed but which were unable to be quantified due to the absence of a standard; a trace amount; details: carboxy component 100 mM, amine component 150 mM, 0.33 units enzyme, pH 9.0, 25° C., 1.5 hours
[3] = oligopeptide production, amount of enzyme 1.0 unit, pH 9.0, 25° C., 3 hours
[4] = carboxy component 100 mM, peptide amine component 150 mM, pH 9.0, 25° C., 3 hours
[5] = L or D amino acid methyl ester hydrochloride 100 mM, L or D amino acid 150 mM, pH 9.0, 25° C., 3 hours
[6] = carboxy component 100 mM, amine component 150 mM, 0.1 unit enzyme, 25° C., reaction time 2 hr
[7] = β-amino acid ester or β-amino acid, carboxy component 100 mM, amine component 150 mM, pH 9.0, 25° C., 3 hours
[8] = carboxy component 100 mM, amine component 150 mM, 0.1 unit enzyme, 25° C., reaction time 3 hr
[9] = carboxy component 40 mM, amine component 40 mM, 0.1 unit enzyme, 25° C., reaction time 3 hr
[10] = amino acid methyl ester hydrochloride 100 mM, methylamine 150 mM, pH 9.0, 25° C., 3 hours

Compound: L-Tyr-Gly-Gly-L-Phe-L-Met
- Produced peptide [1, 3]: 2.7 mM

Compound: Gly-L-Ala-L-Tyr
- Produced peptide ([2]; oligopeptide production): 0.6 mM
- Produced peptide [1, 4]: 1.7 mM

Compound: L-Thr-D-Ser
- Formed peptide [1, 5]: 6.9 mM

Compound: L-Ala-L-Tyr
- Produced peptide ([2]; Table 15-1): 11.1 mM

Compound: D-Ser-D-Ser
- Formed peptide [1, 5]: 2.5 mM

Compound: H-Ala-Asp(OtBu)-OH
- Produced peptide [1, 6]: 62.6 mM

Compound: Gly-Gly-L-Tyr-L-Ala
- Produced peptide [1, 4]: 44.2 mM

Compound: D-Val-D-Ser
- Formed peptide [1, 5]: 0.5 mM

Compound: L-Ala-L-Asp
- Produced peptide ([2]; Table 15-1): 2.3 mM

Compound: D-Met-D-Ser
- Formed peptide [1, 5]: 2.7 mM

Compound: Ala-β-Phe
- Formed peptide [1, 7]: 1.4 mM

Compound: L-Ala-L-Ile
- Produced peptide ([2]; Table 15-1): 24.7 mM

Compound: Gly-β-Phe
- Formed peptide [1, 7]: 0.4 mM

Compound: Gly-Gly-L-Gln
- Produced peptide [1, 4]: 7.2 mM

Compound: Gly-Phe-Met
- Produced peptide [1, 3]: 13.3 mM

Compound: L-Ala-L-Ala-L-Ala-L-Ala-L-Ala
- Produced peptide ([2]; oligopeptide production): 22.8 mM
- Produced peptide [1, 4]: 34.8 mM

Compound: H-Ala-Ser(tBu)-OH
- Produced peptide [1, 6]: 48.8 mM

Compound: H-Aib-H-Gln-OH
- Produced peptide [1, 8]: 18.8 mM

Compound: L-Ala-L-CySH
- Produced peptide (mM) ([2]; Table 15-1): +

Compound: H-Ala-Cl—F-Phe-OH
- Produced peptide [1, 9]: 20.8 mM

Compound: D-Thr-L-Ser
- Formed peptide [1, 5]: 1.0 mM

Compound: L-Ala-L-Val
- Produced peptide ([2]; Table 15-1): 10.9 mM

Compound: Ala-β-Ala
- Formed peptide [1, 7]: 7.7 mM

Compound: L-Ala-Gly-L-Ala
- Produced peptide ([2]; oligopeptide production): 35.1 mM
- Produced peptide [1, 4]: 25.9 mM

Compound: L-Phe-L-Ser
- Formed peptide ([1]; L-amino acid amide hydrochloride 100 mM as carboxy component, L-amino acid 150 mM, pH 9.0, 25° C., 3 hours): 0.6 mM

Compound: L-Ala-L-Thr
- Produced peptide ([2]; Table 15-1): 47.3 mM

Compound: L-Ala-D-Gln
- Formed peptide [1, 5]: 0.3 mM

Compound: L-Ala-L-Ala-L-Gln
- Produced peptide [1, 4]: 15.2 mM

Compound: D-Val-L-Ser
- Formed peptide [1, 5]: 0.6 mM

Compound: H-Asp(OtBu)-Gln-OH
- Produced peptide [1, 6]: 0.9 mM

Compound: D-Ala-D-Gln
- Formed peptide (mM) [1, 5]: tr

Compound: H-Ala-Lys(Boc)-OH
- Produced peptide [1, 6]: 51.0 mM

Compound: L-Ala-L-Leu-L-Ala
- Produced peptide ([2]; oligopeptide production): 40.7 mM
- Produced peptide [1, 4]: 48.3 mM

Compound: L-Ala-L-Pro
- Produced peptide ([2]; Table 15-1): 1.5 mM

Compound: β-Ala-L-Ser
- Formed peptide [1, 7]: 3.2 mM

Compound: D-Ala-L-Gln
- Formed peptide [1, 5]: 69.3 mM

Compound: β-Ala-β-Ala
- Formed peptide [1, 7]: 0.2 mM

Compound: L-Ala-L-Trp
- Produced peptide ([2]; Table 15-1): 46.0 mM

Compound: L-Ala-L-His-L-Ala
- Produced peptide ([2]; oligopeptide production): 58.0 mM
- Produced peptide [1, 4]: 55.9 mM

Compound: H-Ala-t-Leu-OH
- Produced peptide [1, 8]: 0.4 mM

Compound: H-Aib-Phe-OH
- Produced peptide [1, 8]: 17.2 mM

Compound: H-Ala-p-NO2-Phe-OH
- Produced peptide [1, 9]: 27.5 mM

Compound: H-Ala-p-F-Phe-OH
- Produced peptide ([1]; carboxy component 50 mM, amine component 50 mM, 0.1 unit enzyme, 25° C., reaction time 3 hr): 21.9 mM

Compound: CNC(=O)C(C)N [L-Ala-methylamine]
- Produced peptide ([2]; Table 15-4): 0.6 mM
- Formed peptide [1, 10]: 0.3 mM

Compound: L-Val-D-Ser
- Formed peptide [1, 5]: 1.4 mM

Compound: L-Ala-L-Phe-L-Ala
- Produced peptide ([2]; oligopeptide production): 24.8 mM
- Produced peptide [1, 4]: 49.7 mM

Compound: H-p-NO2-Phe-H-Gln-OH
- Produced peptide [1, 9]: 1.1 mM

Compound: D-Ala-D-Ser
- Produced peptide ([2]; Table 15-1): 5.5 mM
- Formed peptide [1, 5]: 0.2 mM

Compound: Gly-β-Ala
- Formed peptide [1, 7]: 2.2 mM

Compound: [dA]-Gly-Phe
- Produced peptide (mM) ([1]; oligopeptide production, amount of enzyme 0.1 unit, pH 9.0, 25° C., 3 hours): Tr

Compound: L-Ala-L-Glu
- Produced peptide ([2]; Table 15-1): 39.1 mM

Compound: L-Ala-L-Phe-NH2
- Produced peptide ([2]; Table 15-4): 27.1 mM
- Formed peptide ([1]; L-alanine methyl ester hydrochloride 100 mM, L-amino acid amide hydrochloride 150 mM, pH 9.0, 25° C., 3 hours): 12.2 mM

Compound: H—N—Me-Ala-H-Gln-OH
- Produced peptide [1, 8]: 0.5 mM

Compound: L-Ala-Gly
- Produced peptide ([2]; Table 15-1): 11.1 mM

Compound: Thr-β-Phe
- Formed peptide [1, 7]: 1.4 mM

Compound: CNC(=O)[C@@H](N)[C@@H](C)O [L-Thr-methylamine]
- Produced peptide ([2]; Table 15-4): 0.3 mM
- Formed peptide [1, 10]: 0.2 mM

Compound: β-Ala-L-α-Ala
- Formed peptide (mM) [1, 7]: tr

Compound: L-Met-D-Ser
- Formed peptide [1, 5]: 1.9 mM

Compound: D-Ser-L-Ser
- Formed peptide [1, 5]: 3.3 mM

Compound: Thr-β-Ala
- Formed peptide [1, 7]: 3.2 mM

Compound: L-Ala-L-Ala-L-Ala-L-Ala-L-Ala-L-Ala
- Produced peptide (mM) ([1]; carboxy component 10 mM, amine component 15 mM, pH 9.0, 25° C., 3 hours): 1.4* mM

Compound: L-Ala-L-Lys
- Produced peptide ([2]; Table 15-1): 71.2 mM

Compound: L-Ser-D-Ser
- Formed peptide [1, 5]: 16.2 mM

Compound: D-Met-L-Ser
- Formed peptide [1, 5]: 5.1 mM

Compound: β-Ala-L-Gln
- Formed peptide [1, 7]: 0.6 mM

Compound: D-Thr-D-Ser
- Formed peptide [1, 5]: 1.1 mM

Compound: L-Ala-L-Asn
- Produced peptide ([2]; Table 15-1): 52.3 mM
